US12077503B2, “Substituted cyclic amides and their use as herbicides” (FMC CORPORATION, priority 2015, dated 2024)

What was measured:
Format in all cases: in vivo
[1] = system: Galium (catchweed bedstraw, Galium aparine); experiment: Test A postemergence; conditions: Galium, post-emergence, 240 h
Summary of the method: (§1)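 Ratings of 0 (no effect) to 100 (complete control) come from visual comparison with untreated controls roughly 10 d after treatment. Test chemicals, formulated in a non-phytotoxic solvent mixture with surfactant, were applied either as a preemergence directed soil spray on seeded soil or postemergence to one- to two-leaf plants 2 to 10 cm tall.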

[2] = system: barnyardgrass (Echinochloa crus-galli); experiment: Test A postemergence; conditions: Echinochloa crus-galli, post-emergence, 240 h
Summary of the method: as §1

Kochia (Kochia scoparia) [3] = experiment: Test A postemergence; conditions: Bassia scoparia, post-emergence, 240 h
Summary of the method: as §1

[4] = system: giant foxtail (Setaria faberii); experiment: Test A postemergence; conditions: Setaria faberi, post-emergence, 240 h
Summary of the method: as §1

[5] = system: ragweed (common ragweed, Ambrosia elatior); experiment: Test A postemergence; conditions: Ambrosia artemisiifolia, post-emergence, 240 h
Summary of the method: as §1

[6] = system: ryegrass, Italian (Italian ryegrass, Lolium multiflorum); experiment: Test A postemergence; conditions: Lolium multiflorum, post-emergence, 240 h
Summary of the method: as §1

corn (Zea mays) = experiment: Test A postemergence; conditions: Zea mays, post-emergence, 240 h
Summary of the method: as §1

[7] = system: blackgrass (Alopecurus myosuroides); experiment: Test A postemergence; conditions: Alopecurus myosuroides, post-emergence, 240 h
Summary of the method: as §1

[8] = system: wheat (Triticum aestivum); experiment: Test A postemergence; conditions: Triticum aestivum, post-emergence, 240 h
Summary of the method: as §1

[9] = system: pigweed (Amaranthus retroflexus); experiment: Test A postemergence; conditions: Amaranthus retroflexus, post-emergence, 240 h
Summary of the method: as §1

[10] = system: barnyardgrass (Echinochloa crus-galli); experiment: Test A preemergence; conditions: Echinochloa crus-galli, pre-emergence, 240 h, 0 to 100 scale where 0 is no effect and 100 is complete control, read-out: Barnyardgrass plant response rating
Summary of the method: as §1

Kochia (Kochia scoparia) [11] = experiment: Test A preemergence; conditions: Bassia scoparia, pre-emergence, 240 h, 0 to 100 scale where 0 is no effect and 100 is complete control, read-out: Kochia plant response rating
Summary of the method: as §1

[12] = system: giant foxtail (Setaria faberii); experiment: Test A preemergence; conditions: Setaria faberi, pre-emergence, 240 h, 0 to 100 scale where 0 is no effect and 100 is complete control, read-out: Foxtail, Giant plant response rating
Summary of the method: as §1

[13] = system: ragweed (common ragweed, Ambrosia elatior); experiment: Test A preemergence; conditions: Ambrosia artemisiifolia, pre-emergence, 240 h, 0 to 100 scale where 0 is no effect and 100 is complete control, read-out: Ragweed plant response rating
Summary of the method: as §1

[14] = system: ryegrass, Italian (Italian ryegrass, Lolium multiflorum); experiment: Test A preemergence; conditions: Lolium multiflorum, pre-emergence, 240 h, 0 to 100 scale where 0 is no effect and 100 is complete control, read-out: Ryegrass, Italian plant response rating
Summary of the method: as §1

[15] = system: pigweed (Amaranthus retroflexus); experiment: Test A preemergence; conditions: Amaranthus retroflexus, pre-emergence, 240 h, 0 to 100 scale where 0 is no effect and 100 is complete control, read-out: Pigweed plant response rating
[16] = system: barnyardgrass (Echinochloa crus-galli); experiment: Test B flooded paddy test; conditions: Echinochloa crus-galli, 250 g ai/ha, Flood; 0 to 100 scale where 0 is no effect and 100 is complete control; read-out: Barnyardgrass plant response rating
Summary of the method: (§2)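 Compound goes directly into floodwater once pots are flooded 3 cm above soil, targeting plants at two leaves; the water depth is then held for the test duration. Plants sit 13–15 d in a greenhouse and are rated visually, 100 denoting complete control.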

rice (Oryra sativa) = experiment: Test B flooded paddy test; conditions: Oryza sativa, 250 g ai/ha, Flood; 0 to 100 scale where 0 is no effect and 100 is complete control; read-out: Rice plant response rating
Summary of the method: as §2

[17] = system: sedge, umbrella (small-flower umbrella sedge, Cyperus difformis); experiment: Test B flooded paddy test; conditions: Cyperus difformis, 250 g ai/ha, Flood; 0 to 100 scale where 0 is no effect and 100 is complete control; read-out: Sedge, Umbrella plant response rating
Summary of the method: as §2

[18] = system: ducksalad (Heteranthera limosa); experiment: Test B flooded paddy test; conditions: Heteranthera limosa, 250 g ai/ha, Flood; 0 to 100 scale where 0 is no effect and 100 is complete control; read-out: Ducksalad plant response rating
Summary of the method: as §2

[19] = 125 g ai/ha, preemergence, approx. 10 d

**Q.** `CN1C[C@H](c2ccc(C(F)(F)F)cn2)[C@@H](C(=O)Nc2ccc(F)c(F)c2F)C1=O` [Compound 1106] was tested. Which pest or weed control at 125 g/ha ([1]; 125 g ai/ha, postemergence, visual injury on 0 to 100 scale (0 no effect, 100 complete control), approx. 10 d, read-out: Galium plant response rating) did it give?
**A.** 60%

**Q.** What about the pest or weed control at 31 g/ha ([1]; Postemergence, 31 g ai/ha, visual injury after approx. 10 d, 0 to 100 scale, 0 no effect, 100 complete control, read-out: Plant response rating, Galium) of the same molecule?
**A.** 40%

**Q.** What about the pest or weed control at 125 g/ha ([2]; 125 g ai/ha, postemergence, visual injury on 0 to 100 scale (0 no effect, 100 complete control), approx. 10 d, read-out: Barnyardgrass plant response rating) of the same molecule?
**A.** 80%

**Q.** And the pest or weed control at 31 g/ha ([2]; Postemergence, 31 g ai/ha, visual injury after approx. 10 d, 0 to 100 scale, 0 no effect, 100 complete control, read-out: Plant response rating, Barnyardgrass)?
**A.** 30%

**Q.** What about the pest or weed control at 125 g/ha (Kochia (Kochia scoparia) [3]; 125 g ai/ha, postemergence, visual injury on 0 to 100 scale (0 no effect, 100 complete control), approx. 10 d, read-out: Kochia plant response rating) of the same molecule?
**A.** 60%

**Q.** What about the pest or weed control at 31 g/ha (Kochia (Kochia scoparia) [3]; Postemergence, 31 g ai/ha, visual injury after approx. 10 d, 0 to 100 scale, 0 no effect, 100 complete control, read-out: Plant response rating, Kochia) of the same molecule?
**A.** 0%

**Q.** What about the pest or weed control at 125 g/ha ([4]; 125 g ai/ha, postemergence, visual injury on 0 to 100 scale (0 no effect, 100 complete control), approx. 10 d, read-out: Foxtail, Giant plant response rating) of the same molecule?
**A.** 60%

**Q.** What about the pest or weed control at 31 g/ha ([4]; Postemergence, 31 g ai/ha, visual injury after approx. 10 d, 0 to 100 scale, 0 no effect, 100 complete control, read-out: Plant response rating, Foxtail, Giant) of the same molecule?
**A.** 0%

**Q.** And the pest or weed control at 125 g/ha ([5]; 125 g ai/ha, postemergence, visual injury on 0 to 100 scale (0 no effect, 100 complete control), approx. 10 d, read-out: Ragweed plant response rating)?
**A.** 0%

**Q.** And the pest or weed control at 31 g/ha ([5]; Postemergence, 31 g ai/ha, visual injury after approx. 10 d, 0 to 100 scale, 0 no effect, 100 complete control, read-out: Plant response rating, Ragweed)?
**A.** 0%

**Q.** What about the pest or weed control at 125 g/ha ([6]; 125 g ai/ha, postemergence, visual injury on 0 to 100 scale (0 no effect, 100 complete control), approx. 10 d, read-out: Ryegrass, Italian plant response rating) of the same molecule?
**A.** 0%

**Q.** What about the pest or weed control at 31 g/ha ([6]; Postemergence, 31 g ai/ha, visual injury after approx. 10 d, 0 to 100 scale, 0 no effect, 100 complete control, read-out: Plant response rating, Ryegrass, Italian) of the same molecule?
**A.** 0%

**Q.** And the plant injury at 125 g/ha (corn (Zea mays); 125 g ai/ha, postemergence, visual injury on 0 to 100 scale (0 no effect, 100 complete control), approx. 10 d, read-out: Corn plant response rating)?
**A.** 0%

**Q.** What about the Corn plant response rating (crop injury, 0 = no effect, 100 = complete kill) at 31 g/ha (corn (Zea mays); Postemergence, 31 g ai/ha, visual injury after approx. 10 d, 0 to 100 scale, 0 no effect, 100 complete control) of the same molecule?
**A.** 0%

**Q.** What about the pest or weed control at 125 g/ha ([7]; 125 g ai/ha, postemergence, visual injury on 0 to 100 scale (0 no effect, 100 complete control), approx. 10 d, read-out: Blackgrass plant response rating) of the same molecule?
**A.** 0%

**Q.** And the pest or weed control at 31 g/ha ([7]; Postemergence, 31 g ai/ha, visual injury after approx. 10 d, 0 to 100 scale, 0 no effect, 100 complete control, read-out: Plant response rating, Blackgrass)?
**A.** 0%

**Q.** What about the plant injury at 125 g/ha ([8]; 125 g ai/ha, postemergence, visual injury on 0 to 100 scale (0 no effect, 100 complete control), approx. 10 d, read-out: Wheat plant response rating) of the same molecule?
**A.** 0%

**Q.** What about the plant injury at 31 g/ha ([8]; Postemergence, 31 g ai/ha, visual injury after approx. 10 d, 0 to 100 scale, 0 no effect, 100 complete control, read-out: Plant response rating, Wheat) of the same molecule?
**A.** 0%

**Q.** What about the pest or weed control at 125 g/ha ([9]; 125 g ai/ha, postemergence, visual injury on 0 to 100 scale (0 no effect, 100 complete control), approx. 10 d, read-out: Pigweed plant response rating) of the same molecule?
**A.** 20%

**Q.** And the pest or weed control at 31 g/ha ([9]; Postemergence, 31 g ai/ha, visual injury after approx. 10 d, 0 to 100 scale, 0 no effect, 100 complete control, read-out: Plant response rating, Pigweed)?
**A.** 10%

**Q.** And the pest or weed control at 31 g/ha ([10]; 31 g ai/ha, Preemergence)?
**A.** 50%

**Q.** What about the pest or weed control at 125 g/ha [10, 19] of the same molecule?
**A.** 90%

**Q.** And the pest or weed control at 31 g/ha (Kochia (Kochia scoparia) [11]; 31 g ai/ha, Preemergence)?
**A.** 0%

**Q.** And the pest or weed control at 125 g/ha (Kochia (Kochia scoparia) [11]; [19])?
**A.** 60%

**Q.** What about the pest or weed control at 31 g/ha ([12]; 31 g ai/ha, Preemergence) of the same molecule?
**A.** 60%

**Q.** What about the pest or weed control at 125 g/ha [12, 19] of the same molecule?
**A.** 90%

**Q.** And the pest or weed control at 31 g/ha ([13]; 31 g ai/ha, Preemergence)?
**A.** 0%

**Q.** And the pest or weed control at 125 g/ha [13, 19]?
**A.** 30%

**Q.** What about the pest or weed control at 31 g/ha ([14]; 31 g ai/ha, Preemergence) of the same molecule?
**A.** 0%

**Q.** And the pest or weed control at 125 g/ha [14, 19]?
**A.** 0%

**Q.** And the pest or weed control at 31 g/ha ([15]; 31 g ai/ha, Preemergence)?
**A.** 0%

**Q.** What about the pest or weed control at 125 g/ha [15, 19] of the same molecule?
**A.** 20%

**Q.** What about the pest or weed control at 250 g/ha [16] of the same molecule?
**A.** 70%

**Q.** What about the pest or weed control at 250 g/ha (rice (Oryra sativa)) of the same molecule?
**A.** 40%

**Q.** And the pest or weed control at 250 g/ha [17]?
**A.** 0%

**Q.** What about the pest or weed control at 250 g/ha [18] of the same molecule?
**A.** 100%
